Patent US12240844B2 (Voronoi, Inc., priority 2019, dated 2025)

Assays:
Format in all cases: biochemical
[1] = biological target: T1, human GST-DYRK1A (full length) (Homo sapiens, UniProt Q13627); assay: GST-DYRK1A enzyme inhibition, ADP-Glo kinase assay; conditions: read-out: DYRK1 IC50
T1 construct: purified human GST-DYRK1A (full length, Thermo scientifics) enzyme; GST; purchased Thermo scientifics
Method in brief: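 ADP-Glo luminescence quantified kinase activity after a 1 h, 25° C reaction of 10 ng full-length GST-tagged human DYRK1A, substrate and 10 uM ATP in Tris-HCl buffer pH 7.4 with MgCl2, BSA and DTT. Triplicate IC50 values (nM) calculated relative to untreated solvent control.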

LRRK2 = LRRK2 (Homo sapiens, UniProt Q5S007); assay: LRRK2 enzyme inhibition, ADP-Glo kinase assay; set-up: purchased Invitrogen PR8604B
Method in brief: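 ADP-Glo luminescence read after 2 h at 25° C, 10 μM ATP, 25 ng purified human LRRK2 and […] substrate in Tris-HCl pH7.4 buffer with MgCl2, BSA, DTT. Twelve final concentrations, 50 μM down to 0.000001024 μM; IC50 (nM) from inhibition relative to untreated solvent control.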

TTK = biological target: T2, TTK (Homo sapiens, UniProt P33981); assay: TTK enzyme inhibition, ADP-Glo kinase assay; set-up: purchased Signalchem T20-10G; conditions: ATP 5 μM
T2 sequence (P33981 1-857): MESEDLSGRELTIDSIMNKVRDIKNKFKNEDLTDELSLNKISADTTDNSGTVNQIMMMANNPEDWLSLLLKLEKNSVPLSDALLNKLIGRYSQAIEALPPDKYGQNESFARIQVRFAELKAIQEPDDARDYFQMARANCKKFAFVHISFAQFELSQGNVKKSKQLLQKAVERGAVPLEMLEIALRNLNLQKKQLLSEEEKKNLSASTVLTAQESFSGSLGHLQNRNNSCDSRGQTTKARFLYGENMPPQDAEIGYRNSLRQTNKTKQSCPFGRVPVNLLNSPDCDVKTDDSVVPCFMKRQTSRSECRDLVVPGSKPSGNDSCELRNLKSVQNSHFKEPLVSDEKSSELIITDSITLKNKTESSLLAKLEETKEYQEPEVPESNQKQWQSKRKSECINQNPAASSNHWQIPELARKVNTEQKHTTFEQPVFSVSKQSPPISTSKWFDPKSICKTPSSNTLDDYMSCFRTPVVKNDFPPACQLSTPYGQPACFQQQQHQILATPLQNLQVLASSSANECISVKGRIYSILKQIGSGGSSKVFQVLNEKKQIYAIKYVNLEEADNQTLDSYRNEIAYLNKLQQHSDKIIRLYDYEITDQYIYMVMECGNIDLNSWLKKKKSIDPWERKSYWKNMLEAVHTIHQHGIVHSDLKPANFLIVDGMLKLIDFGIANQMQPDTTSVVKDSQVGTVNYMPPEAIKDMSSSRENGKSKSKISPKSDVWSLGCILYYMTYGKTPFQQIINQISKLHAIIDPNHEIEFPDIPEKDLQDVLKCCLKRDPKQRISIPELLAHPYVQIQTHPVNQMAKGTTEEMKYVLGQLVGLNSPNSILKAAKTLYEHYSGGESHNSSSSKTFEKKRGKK
Method in brief: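 Recombinant human TTK (7.5 ng) reacted with 5 μM ATP and MBP substrate (0.2 μg) for 4 h at 25° C in Tris-HCl pH 7.4, MgCl2, BSA, DTT buffer, compound at 0.000017–1 μM. ADP formation by ADP-Glo luminescence; IC50 (nM) relative to solvent control.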

LRRK2, sequence (Q5S007 970-2527 limits assumed): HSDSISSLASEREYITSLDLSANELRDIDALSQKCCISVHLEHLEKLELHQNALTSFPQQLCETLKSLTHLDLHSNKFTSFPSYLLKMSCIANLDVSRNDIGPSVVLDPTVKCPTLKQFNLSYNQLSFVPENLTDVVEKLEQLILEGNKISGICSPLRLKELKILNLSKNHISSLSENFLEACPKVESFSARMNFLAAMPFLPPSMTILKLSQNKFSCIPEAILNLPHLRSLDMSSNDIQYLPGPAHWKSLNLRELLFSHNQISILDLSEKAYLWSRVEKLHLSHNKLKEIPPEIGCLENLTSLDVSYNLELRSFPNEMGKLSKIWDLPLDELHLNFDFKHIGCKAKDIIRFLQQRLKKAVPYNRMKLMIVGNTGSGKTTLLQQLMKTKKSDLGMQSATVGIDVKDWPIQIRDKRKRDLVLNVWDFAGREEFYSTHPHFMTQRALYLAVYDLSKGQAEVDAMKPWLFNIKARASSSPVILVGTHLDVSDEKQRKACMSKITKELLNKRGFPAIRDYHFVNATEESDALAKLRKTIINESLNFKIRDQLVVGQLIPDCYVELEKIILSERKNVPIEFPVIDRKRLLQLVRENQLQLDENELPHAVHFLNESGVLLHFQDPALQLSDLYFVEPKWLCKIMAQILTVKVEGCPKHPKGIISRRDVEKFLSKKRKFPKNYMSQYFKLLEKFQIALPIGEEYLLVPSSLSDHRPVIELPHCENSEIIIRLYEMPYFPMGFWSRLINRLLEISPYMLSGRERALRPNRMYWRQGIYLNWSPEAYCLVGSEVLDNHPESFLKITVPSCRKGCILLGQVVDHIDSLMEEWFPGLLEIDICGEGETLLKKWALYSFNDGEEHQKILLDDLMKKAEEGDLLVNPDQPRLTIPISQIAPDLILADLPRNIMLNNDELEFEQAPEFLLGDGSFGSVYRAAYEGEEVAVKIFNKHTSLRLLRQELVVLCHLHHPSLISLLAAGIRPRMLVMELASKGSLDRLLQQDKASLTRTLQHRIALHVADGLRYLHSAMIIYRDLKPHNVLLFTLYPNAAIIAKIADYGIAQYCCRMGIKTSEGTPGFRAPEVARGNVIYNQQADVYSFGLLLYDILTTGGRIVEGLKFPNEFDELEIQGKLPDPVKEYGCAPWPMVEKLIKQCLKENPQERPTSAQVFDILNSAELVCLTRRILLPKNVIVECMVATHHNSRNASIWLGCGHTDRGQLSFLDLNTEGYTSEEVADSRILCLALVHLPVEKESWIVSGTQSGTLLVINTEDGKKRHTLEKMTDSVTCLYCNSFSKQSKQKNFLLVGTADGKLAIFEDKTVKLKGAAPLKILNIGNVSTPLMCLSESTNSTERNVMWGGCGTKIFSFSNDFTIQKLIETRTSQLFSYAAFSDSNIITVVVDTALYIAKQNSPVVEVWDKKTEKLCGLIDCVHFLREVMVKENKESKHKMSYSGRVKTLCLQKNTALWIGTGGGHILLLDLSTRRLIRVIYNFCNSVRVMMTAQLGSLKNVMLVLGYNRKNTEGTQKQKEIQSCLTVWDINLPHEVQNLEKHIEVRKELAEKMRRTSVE

Row | IC50 [1] [nM] | IC50 (LRRK2) [nM] | IC50 (TTK) [nM] | Structure (SMILES)
1 | < 100 | < 100 | 101 to 300 | CNc1cc(Nc2ccc(C(=O)N3CC[C@@H](N4CCOCC4)C3)c3c2OCC3)nc2[nH]cc(C(F)(F)F)c12 [Example 214, (R)-(7-((4-(methylamino)-3-(trifluoromethyl)-1H-pyrrolo[2,3-b]pyridin-6-yl)amino)-2,3-dihydrobenzofuran-4-yl)(3-morpholinopyrrolidin-1-yl)methanone]
2 | < 100 | < 100 | < 100 | CNc1cc(Nc2ccc(C(=O)N3CC[C@H](N4CCOCC4)C3)c3c2OCC3)nc2[nH]cc(C(F)(F)F)c12 [Example 217, (S)-(7-((4-(methylamino)-3-(trifluoromethyl)-1H-pyrrolo[2,3-b]pyridin-6-yl)amino)-2,3-dihydrobenzofuran-4-yl)(3-morpholinopyrrolidin-1-yl)methanone]
3 | 301 to 1000 | 301 to 1000 | < 100 | O=C(c1ccc(Nc2cc(C3CC3)c3c(C(F)(F)F)c[nH]c3n2)c2c1OCCO2)N1CCOCC1 [Example 220, (8-((4-cyclopropyl-3-(trifluoromethyl)-1H-pyrrolo[2,3-b]pyridin-6-yl)amino)-2,3-dihydrobenzo[b] [1,4]dioxin-5-yl)(morpholino) methanone]
4 | 301 to 1000 | < 100 | < 100 | COc1cc(S(=O)(=O)N2CCOCC2)ccc1Nc1cc(C2CC2)c2c(C#N)c[nH]c2n1 [Example 227, 4-cyclopropyl-6-((2-methoxy-4-(morpholinosulfonyl)phenyl)amino)-1H-pyrrolo[2,3-b]pyridine-3-carbonitrile]
5 | 101 to 300 | < 100 | 101 to 300 | CNc1cc(Nc2ccc(S(=O)(=O)N3CCC(N4CCOCC4)CC3)c3c2OCCO3)nc2[nH]cc(C(F)(F)F)c12 [Example 233, N^4-methyl-N^6-(8-((4-morpholinopiperidin-1-yl)sulfonyl)-2,3-dihydrobenzo [b] [1,4]dioxin-5-yl)-3-(trifluoromethyl)-1H-pyrrolo[2,3-b]pyridine-4,6-diamine]
6 | < 100 | < 100 | < 100 | CNc1cc(Nc2ccc(C(=O)N3CCC(N4CCOCC4)CC3)c3c2OCC3)nc2[nH]cc(C(F)(F)F)c12 [Example 234, (7-((4-(methylamino)-3-(trifluoromethyl)-1H-pyrrolo[2,3-b]pyridin-6-yl)amino)-2,3-dihydrobenzofuran-4-yl)(4-morpholinopiperidin-1-yl)methanone]
7 | < 100 | < 100 | < 100 | CNc1cc(Nc2ccc(C(=O)N3CCC(N4C[C@@H]5C[C@H]4CO5)CC3)c3c2OCC3)nc2[nH]cc(C(F)(F)F)c12 [Example 241, (4-((1S,4S)-2-oxa-5-azabicyclo[2.2.1]heptan-5-yl)piperidin-1-yl)(7-((4-(methylamino)-3-(trifluoromethyl)-1H-pyrrolo[2,3-b]pyridin-6-yl)amino)-2,3-dihydrobenzofuran-4-yl)methanone]
